Laboratory results as given in patent publication US20100273804A1, “PYRIDAZINE DERIVATIVES USEFUL AS FUNGICIDES AND FOR THE TREATMENT OF CANCER” (SYNGENTA CROP PROTECTION, INC., priority 2007, published 2010).

How the values were obtained:
[1] = system: Maqnaporthe qrisea (Pyricularia oryzae); assay: whole plant or invertebrate; type: in vivo; conditions: 144 h, read-out: inhibit fungal infestation
[2] = system: Pyrenophora teres (Helminthosporium teres); assay: Pyrenophora teres (Helminthosporium teres)/barley/preventive (action against net blotch on barley); type: in vivo; conditions: 96 h, barley plants cv. Regina, preventive spray, assessed 4 days after inoculation, read-out: inhibit fungal infestation
Protocol: Pyrenophora teres (Helminthosporium teres)/Barley/Preventive (Action Against Net Blotch on Barley) 1-week-old barley plants cv. Regina are treated with the formulated test compound in a spray chamber. Two days after application barley plants are inoculated by spraying a spore suspension (2.6×10^4 conidia/ml) on the test plants. After an incubation period of 4 days at 20° C. and 95% r.h. the disease incidence is assessed.

[3] = system: Botrytis cinerea; assay: Botrytis cinerea/tomato/preventive (action against Botrytis on tomato); type: in vivo; conditions: 72 h, tomato plants cv. Roter Gnom, preventive spray, assessed 3 days after inoculation, read-out: inhibit fungal infestation
Protocol: (§1) Botrytis cinerea/tomato/preventive (Action against Botrytis on tomato) 4 weeks old tomato plants cv. Roter Gnom are treated with the formulated test compound in a spray chamber. Two days after application tomato plants are inoculated by spraying a spore suspension on the test plants. After an incubation period of 3 days at 20° C. and 95% r. h. in a greenhouse the disease incidence is assessed.

[4] = system: Uncinula necator; assay: Uncinula necator/grape/preventive (action against powdery mildew on grape); type: in vivo; conditions: Erysiphe necator, 168 h, grape seedlings cv. Gutedel, preventive spray, assessed 7 days after inoculation, read-out: inhibit fungal infestation
Protocol: Uncinula necator/Grape/Preventive (Action Against Powdery Mildew on Grape) 5 weeks old grape seedlings cv. Gutedel are treated with the formulated test compound in a spray chamber. One day after application grape plants are inoculated by shaking plants infected with grape powdery mildew above the test plants. After an incubation period of 7 days at 24° C./22° C. and 70% r.h. under a light regime of 14/10 h (light/dark) the disease incidence is assessed.

[5] = system: Septoria tritici; assay: Septoria tritici/wheat/preventive (action against Septoria leaf spot on wheat); type: in vivo; conditions: Zymoseptoria tritici, wheat plants cv. Riband, preventive spray, assessed 16-18 days after inoculation, read-out: inhibits fungal infestation
Protocol: Septoria tritici/Wheat/Preventive (Action Against Septoria Leaf Spot on Wheat) 2 weeks old wheat plants cv. Riband are treated with the formulated test compound in a spray chamber. One day after application wheat plants are inoculated by spraying a spore suspension (10^6 conidia/ml) on the test plants. After an incubation period of 1 day at 22° C./21° C. and 95% r.h. plants are kept at 22° C./21° C. and 70% r.h. in a greenhouse. The disease incidence is assessed 16-18 days after inoculation.

[6] = system: Alternaria solani; assay: Alternaria solani/tomato/preventive (action against Alternaria on tomato); type: in vivo; conditions: 96 h, tomato plants cv. Roter Gnom, preventive spray, assessed 4 days after inoculation, read-out: inhibit fungal infestation
Protocol: as §1, with “Alternaria solani/Tomato/Preventive” for “Botrytis cinerea/tomato/preventive”, “Against Alternaria” for “against Botrytis”, “Tomato)” for “tomato)”, “4” for “3”, “22° C./18°” for “20°”, “r.h.” for “r. h.”

[7] = system: Puccinia recondita; assay: Puccinia recondita/wheat/preventive (action against brown rust on wheat); type: in vivo; conditions: 264 h, wheat plants cv. Arina, preventive spray, assessed 11 days after inoculation, read-out: inhibit fungal infestation
Protocol: Puccinia recondita/Wheat/Preventive (Action Against Brown Rust on Wheat) 1 week old wheat plants cv. Arina are treated with the formulated test compound in a spray chamber. One day after application wheat plants are inoculated by spraying a spore suspension ([…] uredospores/ml) on the test plants. After an incubation period of 1 day at 20° C. and 95% r.h. plants are kept for 10 days 20° C./18° C. (day/night) and 60% r.h. in a greenhouse. The disease incidence is assessed 11 days after inoculation.

Row | SMILES | melting point [°C] | inhibition at 200 ppm [1] [%] | inhibition at 200 ppm [2] [%] | inhibition at 200 ppm [3] [%] | inhibition at 200 ppm [4] [%] | inhibition at 200 ppm [5] [%] | inhibition at 200 ppm [6] [%] | inhibition at 200 ppm [7] [%]
1 | Cc1n[nH]c(=O)c(-c2c(F)cc(F)cc2F)c1Cc1ccc(Cl)cc1 [I.k.157, 5-(4-chloro-benzyl)-6-methyl-4-(2,4,6-trifluoro-phenyl)-2H-pyridazin-3-one] | 212 to 215 | – | – | – | – | – | – | –
2 | Cc1nnc(Cl)c(-c2c(F)cc(F)cc2F)c1Cc1ccc(Cl)cc1 [I.k.158, 3-chloro-5-(4-chloro-benzyl)-6-methyl-4-(2,4,6-trifluoro-phenyl)-pyridazine] | – | ≥ 80 | ≥ 80 | ≥ 80 | ≥ 80 | ≥ 80 | ≥ 80 | ≥ 80
